Measured values: PubChem BioAssay (NCI)
Where “and” joins values, the source holds several entries; their conditions need not be identical. Equal values may be shown once.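 Five concentrations, 48 hours, 96-well plates. The concentration for 50% growth inhibition is given as GI50. At the TGI there is no net growth.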

Assays:
Assay in all cases: DTP human tumour cell line panel, 48 h
A498 renal = system: A498 renal
A549 NSCLC = system: A549 NSCLC
LOX IMVI melanoma = system: LOX IMVI melanoma
NCI-H226 lung = system: NCI-H226 lung
OVCAR-4 ovarian = system: OVCAR-4 ovarian
SK-MEL-28 melanoma = system: SK-MEL-28 melanoma
SNB-19 CNS = system: SNB-19 CNS
U251 CNS = system: U251 CNS
UACC-62 melanoma = system: UACC-62 melanoma
UO-31 renal = system: UO-31 renal

| SMILES | GI50 (A498 renal) [µM] | TGI (A498 renal) | GI50 (A549 NSCLC) [µM] | TGI (A549 NSCLC) | GI50 (LOX IMVI melanoma) [µM] | TGI (LOX IMVI melanoma) | GI50 (NCI-H226 lung) [µM] | GI50 (OVCAR-4 ovarian) [µM] | TGI (OVCAR-4 ovarian) | GI50 (SK-MEL-28 melanoma) [µM] | TGI (SK-MEL-28 melanoma) | TGI (SNB-19 CNS) [µM] | TGI (U251 CNS) [µM] | GI50 (UACC-62 melanoma) [µM] | TGI (UACC-62 melanoma) | GI50 (UO-31 renal) [µM] | TGI (NCI-H226 lung) [µM] | GI50 (SNB-19 CNS) [µM] | GI50 (U251 CNS) [µM] | TGI (UO-31 renal) [µM] |
| --- | --- | --- | --- | --- | --- | --- | --- | --- | --- | --- | --- | --- | --- | --- | --- | --- | --- | --- | --- | --- |
| O=[N+]([O-])c1ccc(C(Cl)C(Cl)c2ccc(C(Cl)C(Cl)c3ccc([N+](=O)[O-])cc3[N+](=O)[O-])cc2)c([N+](=O)[O-])c1 (stereo unspecified) | 1.05 | 11.1 µM and 2.96 µM | 0.362 | 5.04 µM and 4.46 µM | 0.403 | 5.96 µM and 1.72 µM | 0.23 | 0.326 | 8.21 µM and 3.52 µM | 0.389 | 12.3 µM and 1.96 µM | 18.1 | 3.03 | 0.247 | 2.37 µM and 0.623 µM | 0.244 | – | – | – | – |
| Cn1cc(C2=C(c3cn(-c4ccccc4)c4ccccc34)C(=O)NC2=O)c2ccccc21 | > 16.2 | > 25 µM | 11.8 | > 25 µM | 19.2 | > 25 µM | > 25 | 10.4 | > 25 µM | 22.3 | > 25 µM | > 25 | > 25 | 16.3 | > 25 µM | 5.35 | > 25 | > 25 | 11.5 | > 25 |
| CC1(C)N=C(N)N=C(N)N1c1ccc(OCCCNC(=O)Nc2cccc(S(=O)(=O)F)c2)c(Cl)c1 | 21.9 | > 100 µM | 1.69 | > 100 µM | 2.66 | > 100 µM | 8.37 | > 100 | > 100 µM | 8.79 | > 100 µM | > 100 | > 100 | 1.43 | > 100 µM | > 100 | > 100 | 1.22 | 0.777 | > 100 |
| O=C(CCc1ccccc1)NS(=O)(=O)c1ccccc1 | – | > 100 µM | – | > 100 µM | – | > 100 µM | – | – | > 100 µM | – | > 100 µM | > 100 | > 100 | – | > 100 µM | – | > 100 | – | – | > 100 |
| NC(=S)N/N=C1\c2ccccc2-c2c(F)c(F)c(F)c(F)c21 | 16.5 | 55.7 µM | 16.7 | > 58.4 µM | 2.34 | 7.64 µM | 13.1 | 1.65 | 3.52 µM | 2.99 | 8.87 µM | 29.2 | 10.2 | 8.97 | 24.6 µM | 4.31 | 28.9 | 11.4 | 3.16 | 9.03 |
| CCC1C(C(=O)Nc2ccccc2C)=C(C)NC(C)=C1c1ccccc1C (stereo unspecified) | – | > 100 µM | – | > 100 µM | – | > 100 µM | – | – | > 100 µM | – | > 100 µM | > 100 | > 100 | – | > 100 µM | – | > 100 | – | – | > 100 |
